Experimental data reported in US9718780B2, “Substituted pyridines as sodium channel blockers” (priority 2012, dated 2017).

The compounds below were run against human Nav1.7 (Homo sapiens (Human), UniProt Q15858) (assay: FLIPR or FLIPR TETRA sodium dye assay with KCl and test article pre-incubation). Conditions: read-out: Nav1.7 Activity (μM) FLIPR assay IC50 (μM) ± SEM.
Format: cell-based

human Nav1.7, sequence (Q15858 with tags, fused parts or gaps limits assumed): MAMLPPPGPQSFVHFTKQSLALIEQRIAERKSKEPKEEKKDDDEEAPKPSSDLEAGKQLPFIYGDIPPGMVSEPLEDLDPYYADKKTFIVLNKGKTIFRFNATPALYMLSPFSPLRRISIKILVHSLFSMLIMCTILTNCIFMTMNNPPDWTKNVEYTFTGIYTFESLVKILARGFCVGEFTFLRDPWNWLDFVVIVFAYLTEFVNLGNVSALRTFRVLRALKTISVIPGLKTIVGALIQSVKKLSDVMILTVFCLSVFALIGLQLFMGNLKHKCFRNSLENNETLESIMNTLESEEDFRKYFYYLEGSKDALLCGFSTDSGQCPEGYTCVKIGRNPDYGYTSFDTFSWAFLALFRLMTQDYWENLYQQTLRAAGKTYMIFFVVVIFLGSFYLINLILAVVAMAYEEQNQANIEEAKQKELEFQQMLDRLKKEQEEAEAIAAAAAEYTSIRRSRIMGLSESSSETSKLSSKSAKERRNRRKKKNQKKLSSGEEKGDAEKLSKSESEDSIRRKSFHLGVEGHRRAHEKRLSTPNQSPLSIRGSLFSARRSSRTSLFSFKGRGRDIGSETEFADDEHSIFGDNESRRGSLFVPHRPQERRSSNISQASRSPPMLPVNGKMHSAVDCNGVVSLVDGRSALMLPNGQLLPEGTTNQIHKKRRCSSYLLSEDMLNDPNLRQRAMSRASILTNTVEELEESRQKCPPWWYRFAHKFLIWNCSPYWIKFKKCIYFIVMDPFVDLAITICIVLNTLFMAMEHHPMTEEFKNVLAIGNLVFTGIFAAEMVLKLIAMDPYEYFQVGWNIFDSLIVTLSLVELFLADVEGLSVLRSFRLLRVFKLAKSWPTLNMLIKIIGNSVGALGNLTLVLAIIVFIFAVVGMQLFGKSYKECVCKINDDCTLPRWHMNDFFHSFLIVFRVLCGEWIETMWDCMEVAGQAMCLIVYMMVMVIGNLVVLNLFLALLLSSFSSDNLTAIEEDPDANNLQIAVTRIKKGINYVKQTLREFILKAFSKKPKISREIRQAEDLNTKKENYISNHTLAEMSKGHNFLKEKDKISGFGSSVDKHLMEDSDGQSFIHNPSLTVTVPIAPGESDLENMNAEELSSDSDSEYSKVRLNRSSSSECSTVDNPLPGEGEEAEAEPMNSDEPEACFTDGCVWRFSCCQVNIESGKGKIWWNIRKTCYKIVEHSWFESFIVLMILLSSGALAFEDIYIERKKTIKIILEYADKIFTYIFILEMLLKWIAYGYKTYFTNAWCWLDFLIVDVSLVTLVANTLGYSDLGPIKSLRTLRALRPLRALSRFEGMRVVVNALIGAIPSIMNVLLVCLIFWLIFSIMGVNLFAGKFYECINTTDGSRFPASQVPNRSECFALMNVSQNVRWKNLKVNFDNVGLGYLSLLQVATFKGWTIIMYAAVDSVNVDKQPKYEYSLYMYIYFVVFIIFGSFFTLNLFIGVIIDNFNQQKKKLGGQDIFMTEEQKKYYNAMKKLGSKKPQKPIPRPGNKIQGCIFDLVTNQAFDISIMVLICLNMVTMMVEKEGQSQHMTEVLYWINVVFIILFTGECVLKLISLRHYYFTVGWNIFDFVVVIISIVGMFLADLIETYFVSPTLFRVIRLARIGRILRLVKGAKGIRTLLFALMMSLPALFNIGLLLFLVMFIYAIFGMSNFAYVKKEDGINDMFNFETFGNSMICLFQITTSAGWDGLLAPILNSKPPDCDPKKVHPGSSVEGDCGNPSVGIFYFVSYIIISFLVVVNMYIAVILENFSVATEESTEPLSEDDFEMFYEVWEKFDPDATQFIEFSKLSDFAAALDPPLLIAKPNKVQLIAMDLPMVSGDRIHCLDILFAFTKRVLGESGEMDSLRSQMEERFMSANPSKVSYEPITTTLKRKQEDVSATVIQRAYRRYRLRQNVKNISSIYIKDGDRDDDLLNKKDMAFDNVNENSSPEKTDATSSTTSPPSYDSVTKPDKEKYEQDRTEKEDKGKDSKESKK

**Q.** With `O=C(c1cccc(-c2ccc(Oc3ccc(F)cc3)cc2)n1)[C@H](O)CO` [Compound 1, (R)-1-(6-(4-(4-fluorophenoxy)phenyl)pyridin-2-yl)-2,3-dihydroxypropan-1-one] as the compound, how does the IC50 read?
**A.** 0.133 ± 0.005 µM

**Q.** `N#Cc1ccc(Oc2ccc(-c3cccc(C(=O)[C@H](O)CO)n3)cc2)cc1C(F)(F)F` [Compound 2, (R)-4-(4-(6-(2,3-dihydroxypropanoyl)pyridin-2-yl)phenoxy)-2-(trifluoromethyl)benzonitrile] was tested. Which IC50 did it give?
**A.** 0.365 ± 0.065 µM

**Q.** `N#Cc1cc(Oc2ccc(-c3cccc(C(=O)[C@H](O)CO)n3)cc2)ccc1C(F)(F)F` [Compound 3, (R)-5-(4-(6-(2,3-dihydroxypropanoyl)pyridin-2-yl)phenoxy)-2-(trifluoromethyl)benzonitrile] was tested. Which IC50 did it give?
**A.** 0.402 ± 0.096 µM

**Q.** For `O=C(c1cccc(-c2ccc(Oc3ccc(C(F)(F)F)cc3)cc2)n1)[C@H](O)CO` [Compound 4, (R)-2,3-dihydroxy-1-(6-(4-(4-(trifluoromethyl)phenoxy)phenyl)pyridin-2-yl)propan-1-one], which IC50 is on record?
**A.** 0.136 ± 0.016 µM

**Q.** How did the IC50 turn out when `N#Cc1ccc(Oc2ccc(-c3cccc(C(=O)[C@H](O)CO)n3)cc2)cc1` [Compound 5, (R)-4-(4-(6-(2,3-dihydroxypropanoyl)pyridin-2-yl)phenoxy)benzonitrile] was run?
**A.** 0.149 ± 0.023 µM

**Q.** How did the IC50 turn out when `N#Cc1cc(Oc2ccc(-c3cccc(C(O)C(N)=O)n3)cc2)ccc1C(F)(F)F` (stereo not drawn) [Compound 6, 2-(6-(4-(3-cyano-4-(trifluoromethyl)phenoxy)phenyl)pyridin-2-yl)-2-hydroxyacetamide] was run?
**A.** 0.722 ± 0.053 µM
